In experiment [1] the test system is male monkey (a cynomolgus monkey). The experiment can be described thus: Intraocular pressure lowering activity after ocular instillation. Format: in vivo. The settings on record: Primates, in Macaca fascicularis, topical, maximum rate during 24 hours after ocular instillation of 30 μL, conscious monkey; for inhibition in vivo at 100 µg/mL: administration concentration 100 μg/mL; for inhibition in vivo at 3 µg/mL: administration concentration 3 μg/mL; for inhibition in vivo at 10 µg/mL: administration concentration 10 μg/mL; for inhibition in vivo at 30 µg/mL: administration concentration 30 μg/mL; for inhibition in vivo at 1 µg/mL: administration concentration 1 μg/mL. On the procedure:
As can be easily understood by a person skilled in the art, in an in vivo test, since regarding all test compounds, carboxylic acid which is an active body has poor corneal permeability, pharmacological action of the active body was evaluated by ocular instillation administration of a compound which had been converted into an ester such as an ethyl ester or an isopropyl ester, or an alcohol.
A test compound-containing solution (30 μL) which had been adjusted to each of various concentrations was ocular instillation-administered to the left or right eye of a male monkey (a cynomolgus monkey) under consciousness. An intraocular pressure after administration was measured with time from administration initiation to after 24 hours. Upon measurement of an intraocular pressure, a cynomolgus monkey was fixed on a monkey chair, and the monkey was anesthetized by ocular instillation-administering an ocular surface anesthetic (Benoxil eye drops 0.4% Santen Pharmaceutical Co., Ltd.). After mounting of a blepharostat (Handaya Co., Ltd.), an intraocular pressure of both eyes was measured (7 to 8 examples per group) using a pneumatic applanation flat tonometer (Model 30 Classic, REICHERT). A difference between an intraocular pressure value before the administration of a test substance and an intraocular pressure value after the administration of the test substance was calculated as an intraocular pressure lowering rate in accordance with the following equation, and the sustainability of intraocular eye lowering action was evaluated using a maximum intraocular pressure lowering rate during measurement.
The administered concentrations were determined based on the EP2 agonist activities measured by the above-mentioned method.

A further experiment has as its target T1, human EP2 (Homo sapiens, UniProt P43116).
T1 construct: expressed in transfected cells; host or cells: CHO cells (EP2-CHO)
The experiment can be described thus: Measurement of EP2 agonist activity (measurement of cAMP concentration). Format: cell-based. The following applies: EP2-CHO cells, cAMP production (HTRF), reaction 30 minutes at room temperature; read-out: EP2 agonist activity EC50. On the procedure: Using Chem1 cells or CHO cells in which various prostanoid receptors were forcibly expressed, respectively, agonist activities of test compounds on various prostanoid receptors was determined employing, as a measure, an intracellular cyclic AMP (hereinbelow, abbreviated as “cAMP”) production amount or an intracellular calcium concentration.
The test compound and a control substance (PGE2 and PGF2α) were dissolved in dimethyl sulfoxide (DMSO) to prepare a 10 mmol/L solution. The 10 mmol/L solution thus prepared was thawed upon use, then serially diluted with DMSO, and then diluted with a buffer solution for measurement use or a buffer solution for measurement use 2, and then the resulting solution was subjected to an experiment.
Cells forcibly expressing various prostanoid receptors were standing-cultured at 37° C. in the presence of 5% CO2 using a DMEM medium (Sigma) (for culturing FP-Chem1) containing inactivated (56° C., 30 minutes) 9.8 vol % nondialysed-FBS (Life Technologies), 1 vol % Non Essential Amino Acids (Life Technologies), 10 mmol/L HEPES Buffer Solution (Life Technologies), 0.5 vol % GENETICIN (Life Technologies) and 1% penicillin-streptomycin (Life Technologies) or an α-MEM medium (Sigma) (for culturing EP2-CHO) containing inactivated (56° C., 30 minutes) 9.8 vol % dialysed-FBS (Life Technologies) and penicillin-streptomycin-glutamine (Life Technologies). Subculturing was carried out by the following manner.
The medium was removed, and washed with a phosphate-buffered physiological saline not containing Ca^2+ and Mg^2+ one time. A proper amount of trypsin-EDTA (Life Technologies) was added, and this was incubated at room temperature, cells were peeled, and a medium having a volume which is 10-fold a volume of trypsin-EDTA was added to stop an enzymatic reaction. After cells were recovered into a centrifuging tube, and centrifuged at room temperature for 3 minutes at 120 g, the supernatant was removed. Cells were suspended in a proper amount of a medium, and seeded in a culturing flask.
On the measurement day, a medium was removed, and EP2-CHO was washed with a phosphate-buffered physiological saline containing 2 mmol/L EDTA and not containing Ca^2+ and Mg^2+ one time. A proper amount of the phosphate-buffered physiological saline containing 2 mmol/L EDTA and not containing Ca^2+ and Mg^2+ was added, this was incubated at 37° C. in the presence of 5% CO2, cells were peeled, cells were recovered into a centrifuging tube, and centrifuged at room temperature for 3 minutes at 550 g, and the supernatant was removed. Cells were suspended in a proper amount of a buffer solution for measurement 1 (MEM medium (Invitrogen) containing 1.0 w/v % bovine serum albumin (Sigma) and 2 μmol/L diclofenac (Sigma)), and centrifuged at room temperature for 3 minutes at 200 g, and the supernatant was removed. Cells were suspended in a buffer solution for measurement 2 (MEM medium (Invitrogen) containing 1.0 w/v % bovine serum albumin (Sigma), 2 μmol/L diclofenac (Sigma) and 1 mmol/L 3-isobutyl-1-methylxanthine), and each 25 μL of the suspension was dispensed into a 96-well ½ area plate so that the cell number per well became […]. A buffer solution for measurement 2 (25 μL) containing an agonist at a variety of concentrations was added to carry out a reaction at room temperature for 30 minutes. Measurement of a cAMP concentration was carried out using the cAMP HTRF HiRange kit (CIS bio International). According to the two step protocol of the kit manual, each 25 μL of cAMP-D2 and Cryptase diluted with a lysis buffer were added, and this was incubated at room temperature for 1 hour. After incubation for 1 hour, time resolution fluorescence at 620 nm and 660 nm when excited at 340 nm was measured using SpectraMax M5e (Molecular Device), and a ratio (TRF ratio) was obtained, thereby, a cAMP concentration was calculated from a calibration line. […]

As a reminder, the inhibition in vivo is the change of the read-out against control, counted positive when it falls. In general, pEC50 refers to the negative decadic logarithm of the EC50, by convention in mol/L.

pEC50: −log10 of the molar value.

T1 sequence (P43116 whole entry): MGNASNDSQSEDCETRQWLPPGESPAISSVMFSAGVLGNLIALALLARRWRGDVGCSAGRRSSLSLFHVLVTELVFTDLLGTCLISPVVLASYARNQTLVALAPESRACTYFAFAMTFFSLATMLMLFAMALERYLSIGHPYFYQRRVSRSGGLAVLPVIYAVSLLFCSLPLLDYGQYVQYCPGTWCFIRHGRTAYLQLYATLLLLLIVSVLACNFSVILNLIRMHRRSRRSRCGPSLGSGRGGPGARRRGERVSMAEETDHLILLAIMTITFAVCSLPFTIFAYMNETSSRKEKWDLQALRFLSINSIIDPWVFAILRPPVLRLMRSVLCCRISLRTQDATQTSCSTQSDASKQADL

`CC(C)OC(=O)c1csc([C@H]2CC[C@@H]3[C@@H](COc4ccccc4)[C@H](O)C[C@@H]3O2)n1` [3(1), isopropyl 2-[(2R,4aR,5S,6R,7aS)-6-hydroxy-5-(phenoxymethyl)octahydrocyclopenta[b]pyran-2-yl]-1,3-thiazole-4-carboxylate]: the inhibition in vivo at 100 µg/mL in experiment [1] is 28%.
Regarding `CCc1ccc(OC[C@@H]2[C@H]3CC[C@H](c4nc(CO)cs4)O[C@H]3C[C@@H]2O)cc1C1CC1` [10(15), (2R,4aR,5S,6S,7aS)-5-[(3-cyclopropyl-4-ethylphenoxy)methyl]-2-[4-(hydroxymethyl)-1,3-thiazol-2-yl]octahydrocyclopenta[b]pyran-6-ol], in experiment [1], 3 µg/mL produced 37% inhibition in vivo.
For `CCc1ccc(OC[C@@H]2[C@H]3CC[C@H](c4nc(CO)cs4)O[C@H]3C[C@@H]2O)cc1C1CCC1` [10(17), (2R,4aR,5S,6S,7aS)-5-[(3-cyclobutyl-4-ethylphenoxy)methyl]-2-[4-(hydroxymethyl)-1,3-thiazol-2-yl]octahydrocyclopenta[b]pyran-6-ol], in experiment [1], 100 µg/mL produced 57% inhibition in vivo.
`Cc1ccc(OC[C@@H]2[C@H]3CC[C@H](c4nc(CO)cs4)O[C@H]3C[C@H]2O)cc1C` [2(12), (2R,4aR,5S,6R,7aS)-5-[(3,4-dimethylphenoxy)methyl]-2-[4-(hydroxymethyl)-1,3-thiazol-2-yl]octahydrocyclopenta[b]pyran-6-ol] showed an inhibition in vivo at 10 µg/mL in experiment [1] of 43%.
`OCc1csc([C@H]2CC[C@@H]3[C@@H](COc4ccc5c(c4)CC5)[C@H](O)C[C@@H]3O2)n1` [2(7), (2R,4aR,5S,6R,7aS)-5-[(bicyclo[4.2.0]octa-1,3,5-trien-3-yloxy)methyl]-2-[4-(hydroxymethyl)-1,3-thiazol-2-yl]octahydrocyclopenta[b]pyran-6-ol] gave an inhibition in vivo at 30 µg/mL in experiment [1] of 38%.
In turn, `OCc1csc([C@H]2CC[C@@H]3[C@@H](COc4ccc(C5CC5)c(C5CC5)c4)[C@@H](O)C[C@@H]3O2)n1` [Example 10, (2R,4aR,5S,6S,7aS)-5-[(3,4-dicyclopropylphenoxy)methyl]-2-[4-(hydroxymethyl)-1,3-thiazol-2-yl]octahydrocyclopenta[b]pyran-6-ol] returned an inhibition in vivo at 10 µg/mL in experiment [1] of 40%.
`Cc1ccc(OC[C@@H]2[C@H]3CC[C@H](c4nc(CO)cs4)O[C@H]3C[C@@H]2O)cc1Cl` [10(21), (2R,4aR,5S,6S,7aS)-5-[(3-chloro-4-methylphenoxy)methyl]-2-[4-(hydroxymethyl)-1,3-thiazol-2-yl]octahydrocyclopenta[b]pyran-6-ol] yielded an inhibition in vivo at 1 µg/mL in experiment [1] of 44%.
The compound `OCc1csc([C@H]2CC[C@@H]3[C@@H](COc4ccc5c(c4)CCC5)[C@@H](O)C[C@@H]3O2)n1` [10(1), (2R,4aR,5S,6S,7aS)-5-[(2,3-dihydro-1H-inden-5-yloxy)methyl]-2-[4-(hydroxymethyl)-1,3-thiazol-2-yl]octahydrocyclopenta[b]pyran-6-ol] gave an inhibition in vivo at 3 µg/mL in experiment [1] of 29%.
Take `CCc1cc(OC[C@@H]2[C@H]3CC[C@H](c4nc(CO)cs4)O[C@H]3C[C@@H]2O)ccc1C` [10(3), (2R,4aR,5S,6S,7aS)-5-[(3-ethyl-4-methylphenoxy)methyl]-2-[4-(hydroxymethyl)-1,3-thiazol-2-yl]octahydrocyclopenta[b]pyran-6-ol]: in experiment [1], the inhibition in vivo at 1 µg/mL came to 49%.
On to `OCc1csc([C@H]2CC[C@@H]3[C@@H](COc4ccc5c(c4)CCC5)[C@H](O)C[C@@H]3O2)n1` [2(4), (2R,4aR,5S,6R,7aS)-5-[(2,3-dihydro-1H-inden-5-yloxy)methyl]-2-[4-(hydroxymethyl)-1,3-thiazol-2-yl]octahydrocyclopenta[b]pyran-6-ol], for which the inhibition in vivo at 100 µg/mL in experiment [1] turned out to be 40%.
`OCc1csc([C@H]2CC[C@@H]3[C@@H](COc4ccc5ccoc5c4)[C@H](O)C[C@@H]3O2)n1` [2(8), (2R,4aR,5S,6R,7aS)-5-[(1-benzofuran-6-yloxy)methyl]-2-[4-(hydroxymethyl)-1,3-thiazol-2-yl]octahydrocyclopenta[b]pyran-6-ol] showed an inhibition in vivo at 30 µg/mL in experiment [1] of 55%.
With `CC(C)OC(=O)c1csc([C@H]2CC[C@@H]3[C@@H](COc4ccc5c(c4)CCC5)[C@H](O)C[C@@H]3O2)n1` [3(4)], in experiment [1], the inhibition in vivo at 30 µg/mL stood at 35%.
In the case of `CCc1cc(OC[C@@H]2[C@H]3CC[C@H](c4nc(CO)cs4)O[C@H]3C[C@H]2O)ccc1C` [2(9), (2R,4aR,5S,6R,7aS)-5-[(3-ethyl-4-methylphenoxy)methyl]-2-[4-(hydroxymethyl)-1,3-thiazol-2-yl]octahydrocyclopenta[b]pyran-6-ol], the inhibition in vivo at 10 µg/mL in experiment [1] turned out to be 52%.
`CCc1ccc(OC[C@@H]2[C@H]3CC[C@H](c4nc(CO)cs4)O[C@H]3C[C@@H]2O)cc1CC` [10(32), (2R,4aR,5S,6S,7aS)-5-[(3,4-diethylphenoxy)methyl]-2-[4-(hydroxymethyl)-1,3-thiazol-2-yl]octahydrocyclopenta[b]pyran-6-1] gave an inhibition in vivo at 3 µg/mL in experiment [1] of 41%.
Take `O=C(O)c1csc([C@H]2CC[C@@H]3[C@@H](COc4ccc5c(c4)CC5)[C@H](O)C[C@@H]3O2)n1` [1(15), 2-{(2R,4aR,5S,6R,7aS)-5-[(bicyclo[4.2.0]octa-1,3,5-trien-3-yloxy)methyl]-6-hydroxyoctahydrocyclopenta[b]pyran-2-yl}-1,3-thiazole-4-carboxylic acid]: the pEC50 on human EP2 was 7.85.
Still for that read-out and setting: for `CCc1ccc(OC[C@@H]2[C@H]3CC[C@H](c4nc(C(=O)O)cs4)O[C@H]3C[C@@H]2O)cc1C1CCC1` [9(36), 2-{(2R,4aR,5S,6S,7aS)-5-[(3-cyclobutyl-4-ethylphenoxy)methyl]-6-hydroxyoctahydrocyclopenta[b]pyran-2-yl}-1,3-thiazole-4-carboxylic acid] the value was 8.46; for `CCc1ccc(OC[C@@H]2[C@H]3CC[C@H](c4nc(C(=O)O)cs4)O[C@H]3C[C@@H]2O)cc1CC` [9(23), 2-{(2R,4aR,5S,6S,7aS)-5-[(3,4-diethylphenoxy)methyl]-6-hydroxyoctahydrocyclopenta[b]pyran-2-yl}-1,3-thiazole-4-carboxylic acid], 8.80.

(Values after patent US9890146B2, “Compound having selective EP2 agonist activity” (ONO PHARMACEUTICAL CO., LTD., priority 2014, dated 2018).)
